The target of data set [1] is T1, Androgen receptor (Homo sapiens, UniProt P10275).
T1 sequence (P10275 whole entry): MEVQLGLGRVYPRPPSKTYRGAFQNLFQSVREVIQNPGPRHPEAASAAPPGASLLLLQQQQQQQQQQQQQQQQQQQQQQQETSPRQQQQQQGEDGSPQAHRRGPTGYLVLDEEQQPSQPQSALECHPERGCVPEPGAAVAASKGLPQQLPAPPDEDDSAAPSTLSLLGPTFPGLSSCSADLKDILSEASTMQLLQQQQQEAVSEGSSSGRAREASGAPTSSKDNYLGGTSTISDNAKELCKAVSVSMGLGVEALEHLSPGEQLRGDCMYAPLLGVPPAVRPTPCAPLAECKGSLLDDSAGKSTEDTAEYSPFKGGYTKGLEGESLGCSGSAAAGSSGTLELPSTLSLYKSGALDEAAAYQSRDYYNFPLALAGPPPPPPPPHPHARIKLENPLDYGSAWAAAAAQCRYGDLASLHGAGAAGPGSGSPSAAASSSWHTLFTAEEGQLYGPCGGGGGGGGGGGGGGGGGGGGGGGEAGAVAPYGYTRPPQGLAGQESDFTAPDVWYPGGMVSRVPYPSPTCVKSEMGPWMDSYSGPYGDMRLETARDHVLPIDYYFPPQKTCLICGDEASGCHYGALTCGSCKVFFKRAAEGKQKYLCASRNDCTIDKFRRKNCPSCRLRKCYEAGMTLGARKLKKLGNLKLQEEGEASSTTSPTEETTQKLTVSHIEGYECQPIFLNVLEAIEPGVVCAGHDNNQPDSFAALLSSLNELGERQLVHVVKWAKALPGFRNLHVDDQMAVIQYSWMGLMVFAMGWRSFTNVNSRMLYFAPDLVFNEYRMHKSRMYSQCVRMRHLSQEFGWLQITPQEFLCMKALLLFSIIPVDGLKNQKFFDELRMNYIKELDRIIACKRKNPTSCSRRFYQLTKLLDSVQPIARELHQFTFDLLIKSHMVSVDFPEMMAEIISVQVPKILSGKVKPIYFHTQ
Kind of data set: Displacement of [3H]mibolerone from full length human AR expressed in COS cells after 3.5 hrs by liquid scintillation counting. It counts as cell-based. In general terms: In a radioligand displacement assay an active substance lowers the binding of a labelled ligand.

Data set [2] has as its target T1, Androgen receptor. Kind of data set: Binding affinity to human AR NTD (1 to 561 aa) expressed in CV1 cells coexpressing human AR-LBD (644-919 aa) assessed as N/C-termini interaction by androgenic assay. Type of data set: cell-based, CV-1.
Data set [3] concerns the target T1, Androgen receptor. Kind of data set: Agonist activity at human AR expressed in CV1 cells after 17 hrs by luciferase reporter gene assay. Type of data set: cell-based, CV-1. Background: A reporter such as luciferase makes a cellular process visible.
Data set [4] relates to Rattus norvegicus. Kind of data set: Increase in levator ani muscle weight in orchidectomized Sprague-Dawley rat at 1 mg/kg, sc qd for 4 days relative to vehicle-treated control. The arrangement: dose 1 mg/kg. Type of data set: functional, organism-based.
Data set [5] has as its system Rattus norvegicus. Kind of data set: Increase in prostate tissue weight in orchidectomized Sprague-Dawley rat at 1 mg/kg, sc qd for 4 days relative to vehicle-treated control. Type of data set: ADME, organism-based, Prostate gland. More on the design: dose 1 mg/kg, route subcutaneous. The settings on record: in vivo, 96 h.
Data set [6] relates to Rattus norvegicus. Kind of data set: Increase in seminal vesicle weight in orchidectomized Sprague-Dawley rat at 1 mg/kg, sc qd for 4 days relative to vehicle-treated control. It counts as ADME, organism-based. The arrangement: dose 1 mg/kg, route subcutaneous. The settings on record: in vivo, 96 h.

For 27 compounds, IC50, EC50 and Activity results are on record in ChEMBL document CHEMBL3232788, “1-(2-Hydroxy-2-methyl-3-phenoxypropanoyl)indoline-4-carbonitrile derivatives as potent and tissue selective androgen receptor modulators” (J Med Chem, 2014).

Active and inactive are the calls of the source. The calls are words filed in the database; no cut-off is given here.

With `C[C@](O)(COc1ccc(Cl)cc1F)C(=O)N1CCc2c(C#N)cccc21`, at Androgen receptor [1], the half-maximal inhibitory concentration (IC50) (commonly the concentration that inhibits the measured activity by half) turned out to be 5 nM. Besides, the EC50 – broadly, the concentration at which the effect is half-maximal – at Androgen receptor [2] was found to be 0.85 nM; at Androgen receptor [3], 0.28 nM.

The compound `C[C@](O)(COc1ccc(F)cc1C#N)C(=O)N1CCc2c(C#N)cccc21` registered an IC50 on Androgen receptor [1] of 9.1 nM. Also, the values for the EC50 at Androgen receptor [2] and at Androgen receptor [3] were 0.74 nM and 0.074 nM, respectively.

As for `C[C@](O)(COc1ccccc1F)C(=O)N1CCc2c(C#N)cccc21`, on Androgen receptor [1], the concentration for half-maximal inhibition (IC50) was 10.1 nM. In addition, the EC50 is over 10000 nM on Androgen receptor [2] and 14.8 nM at Androgen receptor [3].

As for `C[C@](O)(COc1ccc(C#N)cc1)C(=O)N1CCc2c(C#N)cccc21`, on Androgen receptor [1], the half-maximal inhibitory concentration (IC50) is 16.4 nM. Moreover, the EC50 on Androgen receptor [2] was 71.8 nM; on Androgen receptor [3], 1.8 nM.

Regarding `COc1ccc(OC[C@](C)(O)C(=O)N2CCc3c(C#N)cccc32)cc1`, the IC50 on Androgen receptor [1] was 146 nM. Moreover, the EC50 at Androgen receptor [2] was 624 nM; on Androgen receptor [3], 8.6 nM.

As to `C[C@](O)(COc1ccccc1Cl)C(=O)N1CCc2c(C#N)cccc21`, the IC50 on Androgen receptor [1] was 56.3 nM. The EC50 on Androgen receptor [2] was found to be 4820 nM; at Androgen receptor [3] it was 6.1 nM.

As to `C[C@](O)(COc1cccc(Cl)c1)C(=O)N1CCc2c(C#N)cccc21`, the half-inhibitory concentration (IC50) on Androgen receptor [1] was 107 nM. For the same compound, the results for the 50% effective concentration (EC50) at Androgen receptor [2] and at Androgen receptor [3] were over 10000 nM and 275 nM, respectively.

The compound `COc1ccc(OC[C@](C)(O)C(=O)N2CCc3c(C#N)cccc32)c(F)c1` showed an IC50 at Androgen receptor [1] of 427 nM. In addition, the EC50 is over 10000 nM at Androgen receptor [2] and 2.9 nM at Androgen receptor [3].

`COc1cc(C#N)ccc1OC[C@](C)(O)C(=O)N1CCc2c(C#N)cccc21` registered an IC50 at Androgen receptor [1] of 16.1 nM. Further, the EC50 at Androgen receptor [2] was found to be 2120 nM; on Androgen receptor [3], 7.6 nM.

Compound `C[C@](O)(COc1ccc(-c2cocn2)cc1)C(=O)N1CCc2c(C#N)cccc21` registered an IC50 on Androgen receptor [1] of 179 nM. The figures for the EC50 on Androgen receptor [2] and at Androgen receptor [3] were over 10000 nM and 7.2 nM, respectively.

Consider `COc1ccc(OC[C@](C)(O)C(=O)N2CCc3c(C#N)cccc32)c(Cl)c1`, for which the IC50 at Androgen receptor [1] came to 3.5 nM. Besides, the EC50 at Androgen receptor [2] is 54.1 nM; at Androgen receptor [3], 0.61 nM.

On Androgen receptor [1], `C[C@](O)(COc1ccccc1C(F)(F)F)C(=O)N1CCc2c(C#N)cccc21` returned an IC50 of 60.9 nM. Besides, the results for the EC50 at Androgen receptor [2] and on Androgen receptor [3] were 372 nM and 1.7 nM, respectively.

Compound `C[C@](O)(COc1ccc(Br)cc1F)C(=O)N1CCc2c(C#N)cccc21` registered an IC50 at Androgen receptor [1] of 36.8 nM. Moreover, the figures for the EC50 at Androgen receptor [2] and at Androgen receptor [3] were 0.93 nM and 0.11 nM, respectively.

With `C[C@](O)(COc1ccccc1C#N)C(=O)N1CCc2c(C#N)cccc21`, the IC50 at Androgen receptor [1] is 14.3 nM. Further, the EC50 at Androgen receptor [2] was 0.77 nM; on Androgen receptor [3], 0.15 nM.

As for `C[C@](O)(COc1ccc(Cl)cc1)C(=O)N1CCc2c(C#N)cccc21`, the half-inhibitory concentration (IC50) at Androgen receptor [1] was determined as 36.5 nM. Further, the EC50 at Androgen receptor [2] stood at 172 nM; at Androgen receptor [3], 3.4 nM.

`COC(=O)c1ccc(OC[C@](C)(O)C(=O)N2CCc3c(C#N)cccc32)cc1` returned an IC50 at Androgen receptor [1] of 133 nM. For the same compound, the concentration giving a half-maximal response (EC50) at Androgen receptor [2] is over 10000 nM; on Androgen receptor [3] it was 6.8 nM.

As for `C[C@](O)(COc1ccc(Br)cc1)C(=O)N1CCc2c(C#N)cccc21`, on Androgen receptor [1], the IC50 stood at 2.4 nM. Also, the EC50 at Androgen receptor [2] was 7.6 nM; on Androgen receptor [3], 0.34 nM.

For `Cc1cc(F)ccc1OC[C@](C)(O)C(=O)N1CCc2c(C#N)cccc21`, the IC50 on Androgen receptor [1] worked out at 10.7 nM. Moreover, the results for the EC50 on Androgen receptor [2] and at Androgen receptor [3] were 72.2 nM and 1.1 nM, respectively.

At Androgen receptor [1], `C[C@](O)(COc1ccc(C#N)cc1F)C(=O)N1CCc2c(C#N)cccc21` gave an IC50 of 3.2 nM. Also, the EC50 at Androgen receptor [2] was determined as 0.14 nM; on Androgen receptor [3] it was 0.039 nM.

With `C[C@](O)(COc1ccc(C(F)(F)F)cc1)C(=O)N1CCc2c(C#N)cccc21`, on Androgen receptor [1], the IC50 turned out to be 33.1 nM. Also, the EC50 is over 10000 nM at Androgen receptor [2] and 1.8 nM at Androgen receptor [3].

For `C[C@](O)(COc1ccc(F)cc1Br)C(=O)N1CCc2c(C#N)cccc21`, the IC50 on Androgen receptor [1] was found to be 11.4 nM. The values for the EC50 at Androgen receptor [2] and on Androgen receptor [3] were 39.5 nM and 0.4 nM, respectively.

As for `C[C@](O)(COc1cccc(F)c1)C(=O)N1CCc2c(C#N)cccc21`, on Androgen receptor [1], the IC50 was determined as 34.2 nM. Moreover, the EC50 turned out to be 1530 nM on Androgen receptor [2] and 37.4 nM on Androgen receptor [3].

On Androgen receptor [1], `C[C@](O)(COc1ccc(Cl)cc1Cl)C(=O)N1CCc2c(C#N)cccc21` registered an IC50 of 9.1 nM. Further, the concentration for a half-maximal effect (EC50) on Androgen receptor [2] turned out to be 1.4 nM; at Androgen receptor [3], 0.25 nM.

For the compound `C[C@](O)(COc1ccccc1)C(=O)N1CCc2c(C#N)cccc21`, the IC50 on Androgen receptor [1] amounted to 99.5 nM. Also, the EC50 on Androgen receptor [2] was over 10000 nM; on Androgen receptor [3], 689 nM.

In the case of `C[C@](O)(COc1ccc(C#N)cc1Br)C(=O)N1CCc2c(C#N)cccc21`, on Androgen receptor [1], the IC50 stood at 4.8 nM. The EC50 on Androgen receptor [2] was 0.41 nM; at Androgen receptor [3], 0.06 nM.

Consider `COc1cc(Cl)ccc1OC[C@](C)(O)C(=O)N1CCc2c(C#N)cccc21`, for which, on Androgen receptor [1], the IC50 was 366 nM. The concentration for a half-maximal effect (EC50) on Androgen receptor [2] is over 10000 nM; at Androgen receptor [3], 17.1 nM.

For the compound `CCC(=O)O[C@H]1CC[C@H]2[C@@H]3CCC4=CC(=O)CC[C@]4(C)[C@H]3CC[C@]12C` [TESTOSTERONE PROPIONATE], the result in the data set on Rattus norvegicus [4] was Active. The Activity result in the data set on Rattus norvegicus [5] and in the data set on Rattus norvegicus [6] was “Toxic” each time.
